Assay results as given in ChEMBL document CHEMBL4396901, “Discovery of Potent and Noncovalent Reversible EGFR Kinase Inhibitors of EGFRL858R/T790M/C797S” (ACS Med Chem Lett, 2019).
pIC50: −log10 of the molar value. Active and inactive are the calls of the source. No cut-off for these calls is given here.

Experiments:
[1] = system: Epidermal growth factor receptor (Homo sapiens), P00533 [L858R,T790M,C797S]; assay: (§1) Inhibition of recombinant human C-terminal His-tagged/N-terminal GST-tagged EGFR (668 to 1210 residues) T790M/L858R/C797S mutant expressed in baculovirus expression system using poly (Glu,Tyr) 4:1 as substrate incubated for 1 hr in presence of ATP by ELISA
[2] = biological target: Epidermal growth factor receptor (Homo sapiens, UniProt P00533, C797S/L858R/T790M); assay: as §1
[3] = system: Epidermal growth factor receptor (Homo sapiens), P00533 [L858R,T790M,C797S]; assay: Inhibition of recombinant human C-terminal His-tagged/N-terminal GST-tagged EGFR (668 to 1210 residues) T790M/L858R/C797S mutant expressed in baculovirus expression system at 100 nM using poly (Glu,Tyr) 4:1 as substrate incubated for 1 hr in presence of ATP by ELISA relative to control
[4] = biological target: Receptor tyrosine-protein kinase erbB-2 (Homo sapiens) (UniProt P04626); assay: Inhibition of ErbB2 (unknown origin) at 100 nM relative to control
[5] = biological target: Receptor tyrosine-protein kinase erbB-4 (Homo sapiens) (UniProt Q15303); assay: Inhibition of ErbB4 (unknown origin) at 100 nM relative to control
[6] = biological target: Tyrosine-protein kinase Blk (Homo sapiens) (UniProt P51451); assay: Inhibition of BLK (unknown origin) at 100 nM relative to control
[7] = biological target: Proto-oncogene tyrosine-protein kinase Src (Homo sapiens) (UniProt P12931); assay: Inhibition of Src (unknown origin) at 100 nM relative to control
[8] = biological target: Tyrosine-protein kinase ABL1 (Homo sapiens) (UniProt P00519); assay: Inhibition of Abl (unknown origin) at 100 nM relative to control
[9] = biological target: Platelet-derived growth factor receptor alpha (Homo sapiens) (UniProt P16234); assay: Inhibition of PDGFRalpha (unknown origin) at 100 nM relative to control
[10] = biological target: Tyrosine-protein kinase TXK (Homo sapiens) (UniProt P42681); assay: Inhibition of Txk (unknown origin) at 100 nM relative to control
[11] = biological target: Tyrosine-protein kinase receptor UFO (Homo sapiens) (UniProt P30530); assay: Inhibition of AXL (unknown origin) at 100 nM relative to control
[12] = biological target: Tyrosine-protein kinase BTK (Homo sapiens) (UniProt Q06187); assay: Inhibition of BTK (unknown origin) at 100 nM relative to control
[13] = biological target: Vascular endothelial growth factor receptor 2 (Homo sapiens) (UniProt P35968); assay: Inhibition of VEGFR2 (unknown origin) at 100 nM relative to control
[14] = biological target: Vascular endothelial growth factor receptor 1 (Homo sapiens) (UniProt P17948); assay: Inhibition of VEGFR1 (unknown origin) at 100 nM relative to control
[15] = biological target: Vascular endothelial growth factor receptor 3 (Homo sapiens) (UniProt P35916); assay: Inhibition of VEGFR3 (unknown origin) at 100 nM relative to control
[16] = biological target: Ephrin type-A receptor 2 (Homo sapiens) (UniProt P29317); assay: Inhibition of EPHA2 (unknown origin) at 100 nM relative to control
[17] = biological target: Ephrin type-B receptor 2 (Homo sapiens) (UniProt P29323); assay: Inhibition of EPHB2 (unknown origin) at 100 nM relative to control
[18] = biological target: Insulin-like growth factor 1 receptor (Homo sapiens) (UniProt P08069); assay: Inhibition of IGF1R (unknown origin) at 100 nM relative to control
[19] = biological target: Fibroblast growth factor receptor 1 (Homo sapiens) (UniProt P11362); assay: Inhibition of FGFR1 (unknown origin) at 100 nM relative to control
[20] = biological target: Fibroblast growth factor receptor 2 (Homo sapiens) (UniProt P21802); assay: Inhibition of FGFR2 (unknown origin) at 100 nM relative to control
[21] = biological target: Fibroblast growth factor receptor 3 (Homo sapiens) (UniProt P22607); assay: Inhibition of FGFR3 (unknown origin) at 100 nM relative to control
[22] = biological target: Fibroblast growth factor receptor 4 (Homo sapiens) (UniProt P22455); assay: Inhibition of FGFR4 (unknown origin) at 100 nM relative to control
[23] = biological target: Tyrosine-protein kinase JAK1 (Homo sapiens) (UniProt P23458); assay: Inhibition of JAK1 (unknown origin) at 100 nM relative to control
[24] = biological target: Tyrosine-protein kinase JAK3 (Homo sapiens) (UniProt P52333); assay: Inhibition of JAK3 (unknown origin) at 100 nM relative to control
[25] = biological target: High affinity nerve growth factor receptor (Homo sapiens) (UniProt P04629); assay: Inhibition of TrkA (unknown origin) at 100 nM relative to control
[26] = biological target: BDNF/NT-3 growth factors receptor (Homo sapiens) (UniProt Q16620); assay: Inhibition of TrkB (unknown origin) at 100 nM relative to control
[27] = biological target: NT-3 growth factor receptor (Homo sapiens) (UniProt Q16288); assay: Inhibition of TrkC (unknown origin) at 100 nM relative to control
[28] = biological target: ALK tyrosine kinase receptor (Homo sapiens) (UniProt Q9UM73); assay: Inhibition of ALK (unknown origin) at 100 nM relative to control
[29] = biological target: Inhibitor of NF-kappa-B kinase (IKK) (Homo sapiens) (UniProt O14920+O15111+Q9Y6K9); assay: Inhibition of IKK (unknown origin) at 100 nM relative to control; type: protein-complex assay
[30] = biological target: Proto-oncogene tyrosine-protein kinase receptor Ret (Homo sapiens) (UniProt P07949); assay: Inhibition of RET (unknown origin) at 100 nM relative to control
[31] = biological target: Mast/stem cell growth factor receptor Kit (Homo sapiens) (UniProt P10721); assay: Inhibition of cKIT (unknown origin) at 100 nM relative to control
[32] = biological target: Receptor-type tyrosine-protein kinase FLT3 (Homo sapiens) (UniProt P36888); assay: Inhibition of FLT3 (unknown origin) at 100 nM relative to control
[33] = biological target: Hepatocyte growth factor receptor (Homo sapiens) (UniProt P08581); assay: Inhibition of MET (unknown origin) at 100 nM relative to control
[34] = biological target: Insulin receptor (Homo sapiens) (UniProt P06213); assay: Inhibition of IR (unknown origin) at 100 nM relative to control
[35] = biological target: Cytoplasmic tyrosine-protein kinase BMX (Homo sapiens) (UniProt P51813); assay: Inhibition of BMX (unknown origin) at 100 nM relative to control
[36] = biological target: Tyrosine-protein kinase Yes (Homo sapiens) (UniProt P07947); assay: Inhibition of YES (unknown origin) at 100 nM relative to control
[37] = biological target: Macrophage colony-stimulating factor 1 receptor (Homo sapiens) (UniProt P07333); assay: Inhibition of CSF1R (unknown origin) at 100 nM relative to control
[38] = biological target: Focal adhesion kinase 1 (Homo sapiens) (UniProt Q05397); assay: Inhibition of FAK (unknown origin) at 100 nM relative to control
BaF3 [39] = assay: Cytotoxicity against mouse BAF3 cells incubated for 72 hrs by resazurin dye based assay; type: cell-based; conditions: BaF3, 72 h
BaF3 [40] = assay: Antiproliferative activity against mouse BAF3 cells transfected with EGFR L858R/T790M/C797S mutant (unknown origin) incubated for 72 hrs by resazurin dye based assay; type: functional, cell-based; conditions: BaF3, 72 h
NCI-H1975 = assay: Antiproliferative activity human NCI-H1975 cells incubated for 72 hrs by SRB assay; type: functional, cell-based; conditions: NCI-H1975, 72 h
A-431 = assay: Antiproliferative activity human A431 cells incubated for 72 hrs by SRB assay; type: functional, cell-based; conditions: A-431, 72 h
[41] = system: Epidermal growth factor receptor (Homo sapiens), P00533 [L858R,T790M,C797S]; assay: Inhibition of EGFR L858R/T790M/C797S mutant (unknown origin) transfected in mouse BAF3 cells assessed as inhibition of EGF-induced EGFR phosphorylation by Western blot analysis; type: cell-based
[42] = biological target: Epidermal growth factor receptor (Homo sapiens, UniProt P00533, C797S/EX19DEL/T790M); assay: Inhibition of EGFR 19D/T790M/C797S mutant (unknown origin) using poly (Glu,Tyr) 4:1 as substrate incubated for 1 hr in presence of ATP by ELISA
BaF3 [43] = assay: Antiproliferative activity against mouse BAF3 cells transfected with EGFR 19D/T790M/C797S mutant (unknown origin) incubated for 72 hrs by resazurin dye based assay; type: functional, cell-based; conditions: BaF3, 72 h
[44] = Aqueous solubility of the compound in PBS buffer at pH 6.8 by UV-Vis spectrophotometric method; type: physicochemical
[45] = Clearance in rat at 1 mg/kg, iv measured for 0.083 to 24 hrs by LC-MS/MS analysis; type: ADME, organism-based; conditions: in vivo
[46] = Oral bioavailability in rat at 10 mg/kg measured for 0.083 to 24 hrs by LC-MS/MS analysis; type: ADME, organism-based; conditions: in vivo
[47] = system: Epidermal growth factor receptor (Homo sapiens), P00533 [L858R,T790M,C797S]; assay: Inhibition of EGFR L858R/T790M/C797S mutant (unknown origin) transfected in mouse BAF3 cells assessed as inhibition of EGF-induced EGFR phosphorylation at 0.1 uM by Western blot analysis; type: cell-based
[48] = biological target: Platelet-derived growth factor receptor beta (Homo sapiens) (UniProt P09619); assay: Inhibition of PDGFRbeta (unknown origin) at 100 nM relative to control

Chain of Epidermal growth factor receptor (Homo sapiens), P00533 [L858R,T790M,C797S] (P00533 whole entry T790M/C797S/L858R, the tested form may be a part): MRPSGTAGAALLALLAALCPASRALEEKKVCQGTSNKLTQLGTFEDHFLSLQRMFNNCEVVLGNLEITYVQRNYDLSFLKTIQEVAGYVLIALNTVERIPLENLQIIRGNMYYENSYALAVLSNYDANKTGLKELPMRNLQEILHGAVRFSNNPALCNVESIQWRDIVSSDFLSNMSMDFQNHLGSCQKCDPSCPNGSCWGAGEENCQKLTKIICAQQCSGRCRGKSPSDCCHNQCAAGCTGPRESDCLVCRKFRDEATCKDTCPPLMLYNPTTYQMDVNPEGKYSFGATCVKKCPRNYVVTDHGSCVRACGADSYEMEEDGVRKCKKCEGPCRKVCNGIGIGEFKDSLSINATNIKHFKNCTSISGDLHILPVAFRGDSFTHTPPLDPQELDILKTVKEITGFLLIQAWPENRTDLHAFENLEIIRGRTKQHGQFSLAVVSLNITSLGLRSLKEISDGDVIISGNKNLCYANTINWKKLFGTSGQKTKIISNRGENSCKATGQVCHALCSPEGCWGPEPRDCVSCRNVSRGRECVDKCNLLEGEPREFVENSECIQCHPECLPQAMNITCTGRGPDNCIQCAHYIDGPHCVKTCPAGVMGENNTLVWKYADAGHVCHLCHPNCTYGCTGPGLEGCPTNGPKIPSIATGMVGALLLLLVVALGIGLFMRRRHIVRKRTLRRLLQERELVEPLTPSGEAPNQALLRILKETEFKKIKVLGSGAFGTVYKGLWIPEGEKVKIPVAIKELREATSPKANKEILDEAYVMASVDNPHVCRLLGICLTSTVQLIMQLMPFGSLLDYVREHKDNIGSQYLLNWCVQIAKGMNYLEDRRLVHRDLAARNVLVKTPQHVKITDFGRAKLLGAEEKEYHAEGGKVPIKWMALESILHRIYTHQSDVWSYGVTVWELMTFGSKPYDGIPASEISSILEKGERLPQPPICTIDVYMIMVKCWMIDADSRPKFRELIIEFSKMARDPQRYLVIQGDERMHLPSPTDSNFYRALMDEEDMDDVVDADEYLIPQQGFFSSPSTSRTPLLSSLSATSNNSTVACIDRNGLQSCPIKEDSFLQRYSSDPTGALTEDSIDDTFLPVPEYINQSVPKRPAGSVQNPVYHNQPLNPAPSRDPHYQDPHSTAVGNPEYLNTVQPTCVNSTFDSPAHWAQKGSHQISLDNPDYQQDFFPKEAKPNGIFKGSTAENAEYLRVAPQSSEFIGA
Chain of Epidermal growth factor receptor (Homo sapiens, UniProt P00533, C797S/L858R/T790M) (P00533 whole entry T790M/C797S/L858R, the tested form may be a part): as above
Chain of Tyrosine-protein kinase receptor UFO (Homo sapiens) (P30530 whole entry): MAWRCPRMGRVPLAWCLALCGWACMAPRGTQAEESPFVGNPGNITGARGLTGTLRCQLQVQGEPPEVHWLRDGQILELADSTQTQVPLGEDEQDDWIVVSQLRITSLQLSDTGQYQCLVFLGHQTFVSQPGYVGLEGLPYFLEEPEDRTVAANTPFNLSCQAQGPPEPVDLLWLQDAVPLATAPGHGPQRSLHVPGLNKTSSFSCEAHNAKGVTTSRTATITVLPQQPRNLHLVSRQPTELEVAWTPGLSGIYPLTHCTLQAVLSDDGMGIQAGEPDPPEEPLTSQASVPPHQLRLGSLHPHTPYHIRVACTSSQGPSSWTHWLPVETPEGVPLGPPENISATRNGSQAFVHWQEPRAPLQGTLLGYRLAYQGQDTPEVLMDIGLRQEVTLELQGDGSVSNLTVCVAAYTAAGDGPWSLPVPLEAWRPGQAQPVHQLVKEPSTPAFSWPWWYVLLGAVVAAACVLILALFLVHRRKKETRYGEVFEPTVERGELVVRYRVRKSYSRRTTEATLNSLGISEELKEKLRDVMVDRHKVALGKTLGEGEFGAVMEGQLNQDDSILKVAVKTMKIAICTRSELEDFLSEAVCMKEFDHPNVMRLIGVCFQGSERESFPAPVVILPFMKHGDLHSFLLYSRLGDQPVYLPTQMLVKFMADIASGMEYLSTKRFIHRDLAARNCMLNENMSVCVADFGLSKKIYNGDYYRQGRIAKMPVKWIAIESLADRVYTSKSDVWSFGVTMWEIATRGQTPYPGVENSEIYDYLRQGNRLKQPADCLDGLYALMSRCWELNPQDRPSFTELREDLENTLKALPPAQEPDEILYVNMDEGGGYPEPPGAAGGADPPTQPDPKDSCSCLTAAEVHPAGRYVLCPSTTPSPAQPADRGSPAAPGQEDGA
Chain of BDNF/NT-3 growth factors receptor (Homo sapiens) (Q16620 32-822 limits assumed): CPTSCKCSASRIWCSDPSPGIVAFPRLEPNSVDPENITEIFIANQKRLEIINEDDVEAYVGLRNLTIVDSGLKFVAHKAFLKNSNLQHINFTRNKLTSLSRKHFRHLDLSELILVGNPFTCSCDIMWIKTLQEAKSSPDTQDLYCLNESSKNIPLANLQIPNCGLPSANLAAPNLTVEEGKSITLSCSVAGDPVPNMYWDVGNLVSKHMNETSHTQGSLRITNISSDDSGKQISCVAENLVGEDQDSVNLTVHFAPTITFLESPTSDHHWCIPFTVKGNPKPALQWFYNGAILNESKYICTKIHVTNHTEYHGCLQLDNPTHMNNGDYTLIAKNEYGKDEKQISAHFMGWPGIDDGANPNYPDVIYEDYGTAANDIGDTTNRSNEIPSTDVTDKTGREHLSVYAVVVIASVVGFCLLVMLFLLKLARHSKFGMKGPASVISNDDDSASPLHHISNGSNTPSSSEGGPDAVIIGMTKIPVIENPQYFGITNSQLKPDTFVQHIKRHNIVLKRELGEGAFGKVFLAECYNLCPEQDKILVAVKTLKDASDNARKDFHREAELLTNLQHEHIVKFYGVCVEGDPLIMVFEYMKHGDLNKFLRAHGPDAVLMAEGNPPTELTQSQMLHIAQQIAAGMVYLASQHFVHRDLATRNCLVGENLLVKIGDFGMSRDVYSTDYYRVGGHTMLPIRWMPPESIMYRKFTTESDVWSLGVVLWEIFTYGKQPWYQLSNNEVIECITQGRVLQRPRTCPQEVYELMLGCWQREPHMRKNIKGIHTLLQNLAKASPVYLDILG
Chain of Tyrosine-protein kinase TXK (Homo sapiens) (P42681 whole entry): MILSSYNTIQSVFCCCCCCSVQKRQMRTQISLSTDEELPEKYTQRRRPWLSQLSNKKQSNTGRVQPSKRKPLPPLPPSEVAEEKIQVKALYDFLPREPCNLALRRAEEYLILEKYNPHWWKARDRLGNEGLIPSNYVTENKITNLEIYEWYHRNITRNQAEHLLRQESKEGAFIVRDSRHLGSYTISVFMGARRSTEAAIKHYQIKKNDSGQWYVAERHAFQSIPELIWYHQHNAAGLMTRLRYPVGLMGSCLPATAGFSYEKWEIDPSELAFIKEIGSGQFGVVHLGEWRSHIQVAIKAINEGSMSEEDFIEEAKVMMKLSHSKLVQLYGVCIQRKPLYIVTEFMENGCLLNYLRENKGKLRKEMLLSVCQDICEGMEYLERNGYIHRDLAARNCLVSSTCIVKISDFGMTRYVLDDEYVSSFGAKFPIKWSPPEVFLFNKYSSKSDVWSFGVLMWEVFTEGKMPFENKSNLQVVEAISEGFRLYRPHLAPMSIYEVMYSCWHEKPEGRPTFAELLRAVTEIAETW

COc1cc2c(Nc3ccc(NC(=O)C(c4ccccc4)c4ccccc4)cc3F)ncnc2cc1OCC1CCN(C)CC1
inhibition [1]: inactive

COc1cc2c(Nc3ccc(NC(=O)C(C)c4ccccc4)cc3F)ncnc2cc1OCC1CCN(C)CC1 (stereo unspecified)
inhibition [1]: inactive

COc1cc2ncnc(Nc3ccc(NC(=O)C(c4ccccc4)N4Cc5ccccc5C4=O)cc3F)c2cc1OCCCN1CCOCC1 (stereo unspecified)
inhibition [1]: Active

COc1cc2ncnc(Nc3ccc(NC(=O)C(c4ccccc4)N4Cc5ccccc5C4=O)cc3F)c2cc1OC (stereo unspecified)
inhibition [1]: Active

COc1cc2c(Nc3cc(NC(=O)C(c4ccccc4)N4Cc5ccccc5C4=O)ccc3F)ncnc2cc1OCC1CCN(C)CC1 (stereo unspecified)
pIC50 [2]: 7.43

COc1cc2c(Nc3ccc(NC(=O)CC4Cc5ccccc5C4)cc3F)ncnc2cc1OCC1CCN(C)CC1
inhibition [1]: inactive

COc1cc2c(Nc3ccc(NC(=O)Cc4ccccc4)cc3F)ncnc2cc1OCC1CCN(C)CC1
inhibition [1]: inactive

COc1cc2ncnc(Nc3ccc(NC(=O)C(c4ccccc4)N4Cc5ccccc5C4=O)cc3F)c2cc1OCN1CCOCC1 (stereo unspecified)
inhibition [1]: Active

COc1cc2c(Nc3ccc(NC(=O)C(c4cc(F)ccc4F)N4Cc5ccccc5C4=O)cc3F)ncnc2cc1OCC1CCN(C)CC1 (stereo unspecified)
pIC50 [2]: 8.66 | inhibition [3]: > 90% | inhibition [4]: > 90% | inhibition [5]: > 90% | inhibition [6]: > 90% | inhibition [7]: 50 to 75% | inhibition [8]: 50 to 75% | inhibition [9]: 50 to 75% | inhibition [10]: 50 to 75% | inhibition [11]: 50 to 75% | inhibition [12]: 50 to 75% | inhibition [13]: 50 to 75% | inhibition [14]: < 25% | inhibition [15]: < 25% | inhibition [16]: < 25% | inhibition [17]: < 25% | inhibition [18]: < 25% | inhibition [19]: < 25% | inhibition [20]: < 25% | inhibition [21]: < 25% | inhibition [22]: < 25% | inhibition [23]: < 25% | inhibition [24]: < 25% | inhibition [25]: < 25% | inhibition [26]: < 25% | inhibition [27]: < 25% | inhibition [28]: < 25% | inhibition [29]: < 25% | inhibition [30]: < 25% | inhibition [31]: < 25% | inhibition [32]: < 25% | inhibition [33]: < 25% | inhibition [34]: < 25% | inhibition [35]: < 25% | inhibition [36]: < 25% | inhibition [37]: < 25% | inhibition [38]: < 25% | pIC50 (BaF3 [39]): 5.11 | pIC50 (BaF3 [40]): 6.19 | pIC50 (NCI-H1975): 5.52 | pIC50 (A-431): 5.91 | inhibition [41]: Dose-dependent effect | pIC50 [42]: 6.48 | pIC50 (BaF3 [43]): 5.45 | solubility [44]: Insoluble | clearance [45]: 16 mL/min/kg | bioavailability [46]: 0.55% | inhibition [47]: Active | inhibition [48]: 50 to 75%

C=CC(=O)Nc1cc(Nc2nccc(-c3cn(C)c4ccccc34)n2)c(OC)cc1N(C)CCN(C)C [OSIMERTINIB]
pIC50 (BaF3 [39]): 5.29 | pIC50 (BaF3 [40]): 5.41 | pIC50 (NCI-H1975): […] | pIC50 (A-431): […]
